{
  "source": "patent US10780139B1",
  "about": "“Hypericum revolutum extract as a vasodilator” (King Abdulaziz University, priority 2020, dated 2020)",
  "key": {"[1]": {"tested_on": "PE pre-contracted isolated aorta", "test": "vasodilating activity, isolated artery technique (PE-precontracted isolated aorta)", "design": "species or system Wistar rats", "conditions": "for vasodilation of PE precontracted isolated aortae: isolated compounds 1-10 μM cumulative, vs time control, p<0.05, FIG. 7-8", "description": "Male Wistar rats 6-8 weeks old (180-200 g) (King Fahd Medical Research Center, King Abdulaziz University, Jeddah, Saudi Arabia) were used in this study. Clear polypropylene cages containing 4 rats each were used to house the animals and provided access to purified water and standard rodent pellets. The animal housing conditions applied were constant involving alternating 12 hours light and dark, a temperature of 22±3° C., a relative humidity of 50-60%, and adequate ventilation. Experimental protocol was approved by the Research Ethical Committee, Faculty of Pharmacy, King Abdulaziz University, Jeddah, Saudi Arabia (approval number 126-1439) and was conducted in accordance with the Saudi Arabia Research Bioethics and Regulations.\nAll animals used for the purpose of this study received a standard pellet diet and drinking water. Animals were killed by decapitation with rodent guillotine and the descending thoracic aorta was carefully excised and cleaned from fat and connective tissue.\n(§1) The vasodilating activities of the methanol extract, fractions, and isolated compounds were studied using the isolated artery technique as previously described (El-Bassossy et al., 2013; El-Bassossy et al., 2016). Briefly, aorta was excised, cleaned of any fats and connective tissue, and cut into 3 mm rings. Each ring was suspended in channels filled with 25 ml of Krebs Henseleit buffer (118 mM NaCl, 4.8 mM KCl, 2.5 mM CaCl2), 1.2 mM MgSO4, 1.2 mM KH2PO4, 25 mM NaHCO3, and 11.1 mM glucose) maintained at 37° C. and continuously aerated with gas consisting of 95% oxygen and 5% carbon dioxide. The buffer solution in the channels was changed every 30 minutes.\n(§2) The aortic rings were left to equilibrate for 20 minutes at a resting tension of 1500 mg±50. Primary contraction and relaxation of the aorta were then performed by adding PE (10^−5 M) followed by ACh […]. After the tension was returned to resting state, cumulative concentrations of the total extract, fractions (1-10 μg/ml) or the pure isolated compounds (1-10 μM) were added to the organ bath containing the isolated aortae precontracted with PE (10 μM). The decrease in tension was measured as a measure of vasodilation activities.\n(§3) In all experiments, similar PE-precontraction tension was achieved before testing the vasodilating responses."}, "[2]": {"tested_on": "PE pre-contracted endothelium-denuded aorta", "test": "vasodilating activity in endothelium-denuded PE-precontracted isolated aorta", "design": "species or system Wistar rats", "conditions": "isolated compounds, 10 μM, p<0.05; FIG. 7-8", "description": "as §1, §2\nIn another set of experiments, endothelium was mechanically denuded in order to investigate its role in the vasodilation effect.\nas §3"}, "[3]": {"tested_on": "vascular NO production (isolated aorta)", "test": "NO production from isolated aorta, fluorescence probe DAF-FM", "design": "species or system Wistar rats", "conditions": "10 μM; DAF-FM 2.5 μM; 37° C.; FIG. 9", "description": "Induction of intracellular NO production from the isolated aorta by the total extract, fraction I or the pure isolated compounds was investigated using the fluorescence probe DAF-FM as described in previous work with some modifications (Ghareib et al., 2015). Similar to previous technique, the thoracic aorta was excised, cleaned of fats, and cut into approximately 6 mm pieces. Each piece was added to a separate well in a 96-well black plate, kept in dim light, containing KHB/DAF-FM (2.5 μM) mixture (37° C.) and prepared directly before commencement of the procedure. After 3 minutes, 100 μl were carefully drawn and transferred to the adjacent column of wells after which 10 μM ACh was added to one of the aortic segments and 10 μg/ml of the total extract or fraction I or 10 μM of the pure isolated compounds was added to the other wells. Again after 3 minutes, 100 μl were drawn from the wells with the aortae and transferred to the next column of wells. For the blank, a row was kept without an aorta for each concentration of ACh was treated in the same manner. The fluorescence intensity for the withdrawn volumes (and not the column containing the aortae) was then measured at λex=485 nm and […] with the use of Monochromator SPECTRAMAX® M3 plate reader (Molecular Devices, Sunnyvale, Calif., USA)."}, "[4]": {"test": "ROS scavenging ability, DPPH", "conditions": "DPPH 240 μM; 1, 3 and 10 μM; 10-minute reaction; FIG. 10", "description": "The reactive oxygen species (ROS) scavenging ability of fraction I or pure isolated compounds was studied as previously reported with some modifications (Tarkhan et al., 2019). In a 96-well clear plate, the fraction I (1-10 μg/ml) or pure isolated compounds (1-10 μM) in methanol was added to DPPH solution (240 μM) in methanol/tris (1:1 v/v). For the time control (C), methanol was used instead of the fraction or compounds. DPPH was prepared immediately before addition to the plate. The absorbance was measured at 520 nm every minute for 10 minutes with the use of Monochromator SPECTRAMAX® M3 plate reader (Molecular Devices, Sunnyvale, Calif., USA)."}},
  "data": [
    {"compound": "CC(C)=CCC(=O)C1CC23CC(Cl)C(C)(C)OC2(C(O)C=C(C)C)C(=O)C(C(=O)C(C)C)(C3=O)C1(C)C", "note": "(stereo not shown) [compound 2, 3-chloro-9a-(1-hydroxy-3-methylbut-2-en-1-yl)-8-isobutyryl-2,2,7,7-tetramethyl-6-(4-methylpent-3-enoyl)hexahydro-2H-4a,8-methanocyclohepta[b]pyran-9,10(9aH)-dione]", "values": [
      {"measurement": "vasodilation of PE precontracted isolated aortae", "setting": "[1]", "value": "reached statistical significance at concentrations of 3 and 10 μM"},
      {"measurement": "vasodilation of PE-precontracted isolated aortae", "setting": "[1]; maximal extent reached, 1-10 μM, FIG. 7B", "value": 50, "unit": "%"},
      {"measurement": "effect of endothelial denudation on vasodilation activity", "setting": "[2]", "value": "completely blocked the vasodilation activity"},
      {"measurement": "vascular NO production (DAF-FM fluorescence) compared with control", "setting": "[3]", "value": "induced NO production that reached statistical significance"}
    ]},
    {"compound": "CCC(C)C(=O)c1c(O)c(C)c(OCC=C(C)C)c(C(=O)CC(C)C)c1O", "note": "(stereo not shown) [compound 1, 3,5-dihydroxy-6-methyl-1-[(3-methylbut-2-en-1-yl)oxy]-2-(3-methylbutyryl)-4-(2-methylbutyryl)-benzene]", "values": [
      {"measurement": "vasodilation of PE precontracted isolated aortae", "setting": "[1]", "value": "concentration dependent vasodilation"}
    ]},
    {"compound": "COc1cc2c(=O)c3ccccc3oc2c(OC)c1OC", "note": "[compound 5, 2,3,4-trimethoxy xanthone]", "values": [
      {"measurement": "vasodilation of PE precontracted isolated aortae", "setting": "[1]", "value": "concentration dependent vasodilation"},
      {"measurement": "effect of endothelial denudation on vasodilation activity", "setting": "[2]", "value": "blocked the vasodilation activity"},
      {"measurement": "DPPH free radical scavenging activity", "setting": "[4]", "value": "significant free radical scavenging activity"}
    ]},
    {"compound": "CC[C@H](CC[C@@H](C)[C@H]1CC[C@H]2[C@@H]3CC=C4C[C@@H](O)CC[C@]4(C)[C@H]3CC[C@]12C)C(C)C", "note": "[compound 3, β-sitosterol]", "values": [
      {"measurement": "vasodilation of PE precontracted isolated aortae", "setting": "[1]", "value": "concentration dependent vasodilation"},
      {"measurement": "effect of endothelial denudation on vasodilation activity", "setting": "[2]", "value": "completely blocked the vasodilation activity"},
      {"measurement": "vascular NO production (DAF-FM fluorescence) compared with control", "setting": "[3]", "value": "induced NO production that reached statistical significance"}
    ]},
    {"compound": "euxanthone [compound 4]", "values": [
      {"measurement": "vasodilation of PE precontracted isolated aortae", "setting": "[1]", "value": "did not show any significant vasodilation"},
      {"measurement": "effect of endothelial denudation on vasodilation activity", "setting": "[2]", "value": "did not have any significant effect"}
    ]}
  ]
}
